Results as given in patent US20100168033A1, “UNACYLATED GHRELIN AS THERAPEUTIC AGENT IN THE TREATMENT OF METABOLIC DISORDERS” (ALIZE PHARMA SAS, priority 2007, published 2010).
Entries after “also recorded” stand apart in the source; their conditions may differ. Where two headings read alike, the source gives them in different places. No end group written: not given here.

How the values were obtained:
human pancreatic islets [1] = test: Insulin secretion in human pancreatic islets; type: cell-based; conditions: peptide 100 nM; glucose absent or 2 to 25 mM
Protocol: The effects of UAG (1-14) and UAG (1-18), both used at 100 nM, were investigated on insulin secretion in human islets. […] UAG (1-28) and Exendin-4 were used as positive controls (FIGS. 8C and 8D).

HIT-T15 β-cells [2] = test: Insulin secretion in HIT-T15 β-cells; type: cell-based, hamster; conditions: data not shown
Protocol: Insulin secretion—HIT-T15 cells were plated at density of 5×10^5 cells into 100-mm dishes and serum starved for 24 h before incubation for 1 h at 37° C. in HEPES-buffered Krebs-Ringer bicarbonate buffer (KRBH), containing 0.5% BSA with 1.25 mM glucose. The medium was changed and the cells were incubated again for 1 h in KRBH/0.5% BSA containing 1.25, 7.5 or 15 mM glucose. Following acid ethanol extraction of the hormone, secreted insulin was quantitated by a radioimmunoassay kit (Linco Research, Labodia, Yens, Switzerland) which recognizes human insulin and cross reacts with rat insulin.

HIT-T15 β-cells [3] = type: cell-based
Protocol: MTT experiments were also performed in hamster HIT-T15 β-cells, to test the survival effect of UAG (1-28) or its fragments UAG (1-14), UAG (1-18), UAG (1-5) and UAG (17-28) in serum deprived medium, either alone or with IFN-γ/TNF-α/IL-1β. As for the experiments performed on INS-1E β-cells, the peptides were tested at increasing concentrations, ranging from 0.1 nM to 100 nM.
The survival effect of UAG (6-13), UAG (8-13), UAG (8-12), UAG (8-11), UAG (9-12) and UAG (9-11) was assessed in cytokine-treated HIT-T15 β-cells.
The protective effects of peptides UAG (8-13) and UAG (8-12) were found similar to those of UAG (1-14) and UAG (1-18) A peptide made of the inverse sequence of UAG (1-14) and named UAG (14-1), was used as negative control for these experiments (FIG. 5A). […] These effects were however lower than those of UAG (6-13) (FIG. 5B).
UAG fragments with alanine (Ala) substitutions at different amino acid positions (6 to 13) were tested with regards to their survival effects in HIT-T15 hamster β-cells. The cells were cultured in serum deprived medium, either alone or with IFN-γ/TNF-α/IL-1β. The peptides were tested at the concentrations of 1 nM to 100 nM. […] Under treatment with cytokines, where cell survival was reduced by ≈18% with respect to serum starved conditions, all Ala substitutions, except those at positions 10 and 11, completely reversed cell death and brought the survival rate to levels that were even higher than those under serum-free conditions, at both 1 nM and 100 nM concentrations. These effects, were similar to those elicited by the original peptide UAG (6-13) (FIG. 11B).
Particularly, the best effect was exerted by Gly 6-UAG (6-13), whereas the lowest was seen using AcSer 6-UAG (6-13), AcSer 6-(D)Pro 7-UAG (6-13) (FIG. 12B).
(§1) Cell culture—Hamster HIT-T15 insulin-secreting β-cells were obtained and cultured as described (Refs. 14, 4). INS-1E rat β-cells were kindly provided by Prof. Claes B. Wollheim (University Medical Center, Geneva, Switzerland) and cultured as described (Refs. 14, 4). Cell culture reagents were from Invitrogen (Milano, Italy). Cytokines were from Biosource (Invitrogen, Italy).
(§2) Cell survival assay—Cell survival was assessed by 3-[4,5-dimethylthiazol-2-yl]-2,5 diphenyltetrazolium bromide (MTT) as described previously (Ref. 4). Cells were seeded on 96-well plates at a density of 5×10^3 cells/well. After treatments, cells were incubated with 1 mg/ml MTT for ≈1 h. The medium was aspirated, and the formazan product solubilized with 100 μl DMSO. Viability was assessed by spectrophotometry at 570 nm absorbance using a 96-well plate reader.

human pancreatic islets [4] = test: MTT cell survival assay in human pancreatic islets; type: cell-based; conditions: 1 nM to 100 nM
Protocol: The survival effect of UAG (1-14), UAG (1-18), UAG (1-5) and UAG (17-28), with respect to that of full length UAG (1-28), was assessed in human pancreatic islets by MTT. The peptides were tested in islet cells cultured in serum deprived medium, either alone or with IFN-γ/TNF-α/IL-1β (5 ng/ml each).
Human islet isolation—Human islets were obtained from pancreases of multiorgan donors as described (Ref. 4). Islet preparations with purity >70%, not suitable for transplantation, were provided by European Consortium for Islet Transplantation (ECIT) “Islets for Research Distribution Program,” Transplant Unit, Scientific Institute San Raffaele, Vita-Salute University, Milan. Islets (10,000) were cultured in CMRL (Invitrogen) with 10% FBS.
as §2

[5] = test system: UAG receptor on HIT-T15 pancreatic β-cells; test: [125I-Tyr4]-UAG competition binding, HIT-T15 membranes; parameters: species or system hamster; conditions: HIT-T15 cells
Protocol: (§3) The ability of the fragment UAG (6-13) to compete in a concentration-dependent manner with [^125I-Tyr^4]-UAG for HIT-T15 (FIG. 10A) and INS-1E (FIG. 10B) binding sites was assayed. As shown in FIGS. 10A and 10B, unlabelled UAG (1-28) and UAG (6-13) competed with a similar efficacy and in a concentration-dependent fashion with [^125I-Tyr^4]-UAG for such binding sites in both cell lines.
(§4) Binding assay—Membranes from hamster HIT-T15 and rat INS-1E to pancreatic β-cells were prepared and assayed for the presence of [^125I-Tyr^4]-UAG binding. The ability of UAG fragments to compete with the radioligand for such binding sites has been evaluated as previously described (Ref. 4). Data are presented as mean±S.E.M. of three independent experiments.

INS-1E β-cells = test: MTT cell survival assay in INS-1E β-cells; type: cell-based, rat; conditions: peptides 0.1 nM to 100 nM
Protocol: The peptides were tested at increasing concentrations, ranging from 0.1 nM to 100 nM.
as §1, §2

[6] = test system: UAG receptor on INS-1E pancreatic β-cells; test: [125I-Tyr4]-UAG competition binding, INS-1E membranes; parameters: species or system rat; conditions: INS-1E cells
Protocol: as §3, §4

[7] = serum deprived medium with IFN-γ/TNF-α/IL-1β

Row | Substance | insulin secretion (human pancreatic islets [1]) | glucose-induced insulin secretion (HIT-T15 β-cells [2]) | cell survival (MTT) (HIT-T15 β-cells [3]; serum deprived medium alone) | cell survival (MTT) (HIT-T15 β-cells [3]; [7]) | cell survival (MTT) (human pancreatic islets [4]; serum deprived medium alone) | cell survival (MTT) (human pancreatic islets [4]; serum deprived medium with IFN-γ/TNF-α/IL-1β (5 ng/ml each)) | binding to the UAG receptor [5] | cell survival (MTT) (INS-1E β-cells; [7]) | cell survival (MTT) (INS-1E β-cells; serum-free medium) | binding to the UAG receptor [6]
1 | GSSFLSPEHQRVQQ [UAG (1-14)] | significantly increased insulin secretion both in the absence and presence of glucose | significantly increased glucose-induced insulin secretion | significantly increased cell viability | significantly increased cell viability | significantly increased cell survival in serum deprived medium at 10 nM and 100 nM | prevented cell death at 100 nM | recognized and bound to the UAG receptor | more potent than full length UAG (1-28); also recorded: even stronger than native UAG | significant survival effect, comparable to that of UAG (1-28) | recognized and bound to the UAG receptor
2 | GSSFLSPEHQRVQQRKES [UAG (1-18)] | significant effect with 7.5 mM glucose | – | significantly increased cell viability | significantly increased cell viability | significantly increased cell survival at 1 nM and 10 nM | – | – | more potent than full length UAG (1-28) | significant survival effect, comparable to that of UAG (1-28) | –
3 | exendin-4: positive control for insulin secretion, from Phoenix Pharmaceuticals [reference compound] | significantly increased insulin secretion both in the absence and presence of glucose | significantly increased glucose-induced insulin secretion | – | – | – | – | – | – | – | –
